Marks after values point to notes of the source that are not given here.
What was measured:
[1] = test system: chorioallantoic membrane (CAM); test: Early chicken chorioallantoic membrane (CAM) assay of angiogenesis; type: in vivo; settings: for CAM increase (fold): Day 4 to Day 5
Protocol: Fertilized chicken eggs (HiChick Breeding Co, Kapunda, South Australia) were incubated for three days at 38° C. On Day 3 the embryos were cracked out of the egg and into a cup made of plastic piping, with plastic film stretched over the top to form a hammock for the egg to be suspended in. Two ml of DMEM containing penicillin and streptomycin was added to each cup prior to the egg being added. A Petri dish on the top maintained sterility. Incubation continued in a humidified 37° C. incubator.
On Day 4 the chorioallantoic membrane (CAM) begins to grow, and pictures were taken of each embryo at ×5 to measure the CAM area using image analysis software (Video Pro 32, Leading Edge Pty Ltd, South Australia). Embryos were then grouped according to their CAM area, with a control embryo in each for comparison. There were four matched embryos, treated with 6.25, 12.5 and 25 ng of homoharringtonine. Grouping is critical as in these early developmental stages changes in the CAM growth are dramatic. Relatively small differences in size on Day 4 translate to large differences in the CAM on Day 5, making it impossible to compare treatments. Substances were applied in methylcellulose discs, which were first dried under vacuum overnight. The methylcellulose discs were applied to the top of the CAM, and at the beginning of treatment were at least three to four-fold bigger than the CAM area, meaning treatment covered the entire CAM surface.
On Day 5 skim milk with contrast medium was injected into the CAM. Pictures were then taken at various levels of magnification up to ×63. Quantitative measurements were made from ×5 pictures. CAM area, and vein and artery lengths were measured using image analysis (Video Pro 32, Leading Edge Pty Ltd, South Australia). Relative vessel lengths were then calculated as the total length/CAM area. Statistical analysis was made using SigmaStat and OneWay ANOVA with p<0.05 as the level of significance.
The normal organization of the CAM is uniform, with the major vein draining towards the left, and the artery branches coming over the edge of the top and bottom of the CAM. FIG. 3 schematically illustrates tracing of the vein and artery branches, as performed for the measurement of vessel lengths.
The angiogenic inhibitor, homoharringtonine, was obtained from ChemGenex Therapeutics, Inc. (Menlo Park, Calif.) and was made to the appropriate concentration in sterile water. […] Homoharringtonine was applied at 6.25, 12.5 and 25 ng (11.3, 22.5 and 45 nM) doses, and compared with water treated controls. Homoharringtonine reduced the growth of the CAM to 42% of the control in the 25 ng treated CAM. […] The vein, artery and total vessel lengths were reduced to 15%, 18% and 17% of control, respectively.

[2] = test system: chorioallantoic membrane (CAM); test: as above; type: in vivo; settings: taxol treated CAM, dose not given
[3] = 6.25 ng, Day 5, mean ± SEM, n = 6
[4] = 25 ng, Day 5, mean ± SEM, n = 6

**Q.** Which results are given for `COC(=O)C[C@](O)(CCCC(C)(C)O)C(=O)O[C@@H]1C(OC)=C[C@]23CCCN2CCc2cc4c(cc2[C@H]13)OCO4` [Homoharringtonine, cephalotaxine, 4-methyl-2-hydroxy-2-(4-hydroxy-4-methylpentyl) butanediocate ester]?
**A.** CAM increase (fold) ([1]; 6.25 ng, mean ± SEM, n = 6): 7.0 ± 0.4^a fold; Artery length [1, 3]: 1573 ± 516 pixels; Relative artery length [1, 3]: 31.6 ± 4.5^ab length/CAM area; Relative total vessel length [1, 3]: 63.2 ± 7.7^b length/CAM area; Relative vein length [1, 3]: 31.6 ± 4.6^b length/CAM area; Vein length [1, 3]: 1482 ± 499 pixels; Relative artery length ([1]; 12.5 ng, Day 5, mean ± SEM, n = 6): 31.8 ± 3.7^ab length/CAM area; Embryo lethality ([1]; 25 ng dose): killed one of the smaller embryos; CAM increase (fold) ([1]; 25 ng, mean ± SEM, n = 6): 4.3 ± 0.7^a fold; Artery length [1, 4]: 551 ± 265^a pixels; Total vessel length [1, 4]: 909 ± 396^a pixels; Vein length [1, 4]: 359 ± 143^a pixels; Embryo lethality ([1]; initial doses (higher than 25 ng, not given)): resulted in the death of the embryos

**Q.** How did the “Qualitative changes of CAM at higher magnification (FIG. 5)” value [2] turn out when `CC(=O)O[C@H]1C(=O)[C@@]2(C)[C@H]([C@H](OC(=O)c3ccccc3)[C@]3(O)C[C@H](OC(=O)[C@H](O)[C@@H](NC(=O)c4ccccc4)c4ccccc4)C(C)=C1C3(C)C)[C@]1(OC(C)=O)CO[C@@H]1C[C@@H]2O` [taxol] was run?
**A.** Its value is “diffuse leakage of the red blood cells outside the vessels and the skeletons of larger vessels with no remaining blood flow”.

Reference: patent publication US7642252B2, “Angiogenesis inhibition by cephalotaxine alkaloids, derivatives, compositions and uses thereof” (Chemgenex Pharmaceuticals, Inc., priority 2002, dated 2010)
